Molecular target: T1, AsPC-1 HiBiT-KRASG12D (Homo sapiens, UniProt P01116, G12D)
T1 construct: insert the HiBiT tag onto the N-terminus of one or more of the endogenous KRAS alleles; endogenous in cells; host or cells: AsPC-1 (ATCC CRL-1682), CRISPR-Cas9 knock-in clone, one tagged allele
Assay: HiBiT degradation assay (G12D), AsPC-1 HiBiT-KRASG12D cells
Type: cell-based
Conditions: 24 hours treatment; for Dmax: ASPC1, AsPC-1 HiBiT-KRASG12D cells, maximum degradation observed; for DC50: AsPC-1 HiBiT-KRASG12D cells, HiBiT luminescence
Summary of the method: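 HiBiT-KRAS abundance was read as Nano-Glo HiBiT lytic luminescence (45 min, room temperature) after a PBS wash. Before that, a 4 h alamar blue fluorescence read, normalized to DMSO, monitored viability. Treatment lasted 24 hours at 37 °C, in triplicate, using AsPC-1 cells with endogenous N-terminally HiBiT-tagged KRAS G12D.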

T1 sequence (P01116 1-188 isoform P01116-2 G12D): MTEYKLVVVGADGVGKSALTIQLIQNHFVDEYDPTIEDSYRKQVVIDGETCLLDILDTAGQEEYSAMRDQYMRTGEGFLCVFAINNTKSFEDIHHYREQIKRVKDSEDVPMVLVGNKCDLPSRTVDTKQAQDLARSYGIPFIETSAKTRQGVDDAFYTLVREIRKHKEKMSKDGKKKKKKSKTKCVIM

Row | SMILES | Dmax [%] | DC50 [nM]
1 | CCc1cccc2cc(O)cc(-c3ncc4c(N5CC6CCC(C5)N6)nc(OCCN5CCC(F)(CN6CCN(c7cc([C@@H](C(=O)N8C[C@H](O)C[C@H]8C(=O)N[C@@H](C)c8ccc(-c9scnc9C)cc8)C(C)C)on7)C[C@H]6C)CC5)nc4c3F)c12 [Compound 195, (2S,4R)-1-[(2S)-2-{3-[(3R)-4-[(1-{2-[(4-{3,8-diazabicyclo[3.2.1]octan-3-yl}-7-(8-ethyl-3-hydroxynaphthalen-1-yl)-8-fluoropyrido[4,3-d]pyrimidin-2-yl)oxy]ethyl}-4-fluoropiperidin-4-yl)methyl]-3-methylpiperazin-1-yl]-1,2-oxazol-5-yl}-3-methylbutanoyl]-4-hydroxy-N-[(1S)-1-[4-(4-methyl-1,3-thiazol-5-yl)phenyl]ethyl]pyrrolidine-2-carboxamide] | < 20 | 1000 to 3000
2 | CCc1cccc2cc(O)cc(-c3ncc4c(N5CC6CCC(C5)N6)nc(OC[C@@]56CCCN5[C@H](COC(=O)N5CC7(C5)CN(c5cc([C@@H](C(=O)N8C[C@H](O)C[C@H]8C(=O)N[C@@H](C)c8ccc(-c9scnc9C)cc8)C(C)C)on5)C7)CC6)nc4c3F)c12 [Compound 113, [(3S,7aS)-7a-{[(4-{3,8-diazabicyclo[3.2.1]octan-3-yl}-7-(8-ethyl-3-hydroxynaphthalen-1-yl)-8-fluoropyrido[4,3-d]pyrimidin-2-yl)oxy]methyl}-hexahydro-1H-pyrrolizin-3-yl]methyl 6-{5-[(2S)-1-[(2S,4R)-4-hydroxy-2-{[(1S)-1-[4-(4-methyl-1,3-thiazol-5-yl)phenyl]ethyl]carbamoyl}pyrrolidin-1-yl]-3-methyl-1-oxobutan-2-yl]-1,2-oxazol-3-yl}-2,6-diazaspiro[3.3]heptane-2-carboxylate] | 20 to 60 | < 600
3 | CCc1cccc2cc(O)cc(-c3ncc4c(N5CC6CCC(C5)N6)nc(OC[C@@]56CCCN5[C@H](COC(=O)N5CCN(c7cc([C@H](C(=O)N8C[C@H](O)C[C@H]8C(=O)N[C@@H](C)c8ccc(-c9scnc9C)cc8)C(C)C)on7)CC5)CC6)nc4c3F)c12 (stereo in doubt) [Compound 7] | – | < 600
4 | CCc1cccc2cc(O)cc(-c3ncc4c(N5CC6CCC(C5)N6)nc(N5CCC(CN6CCC(CC7CN(c8cc([C@H](C(=O)N9C[C@H](O)C[C@H]9C(=O)N[C@@H](C)c9ccc(-c%10scnc%10C)cc9)C(C)C)on8)C7)CC6)CC5)nc4c3F)c12 [Compound 192, (2S,4R)-1-[(2R)-2-(3-{3-[(1-{[1-(4-{3,8-diazabicyclo[3.2.1]octan-3-yl}-7-(8-ethyl-3-hydroxynaphthalen-1-yl)-8-fluoropyrido[4,3-d]pyrimidin-2-yl)piperidin-4-yl]methyl}piperidin-4-yl)methyl]azetidin-1-yl}-1,2-oxazol-5-yl)-3-methylbutanoyl]-4-hydroxy-N-[(1S)-1-[4-(4-methyl-1,3-thiazol-5-yl)phenyl]ethyl]pyrrolidine-2-carboxamide] | – | > 3000
5 | CCc1cccc2cc(O)cc(-c3ncc4c(N5CC6CCC(C5)N6)nc(OCCN5CCC(CN6CC(Oc7cc([C@@H](C(=O)N8C[C@H](O)C[C@H]8C(=O)N[C@@H](C)c8ccc(-c9scnc9C)cc8)C(C)C)on7)C6)CC5)nc4c3F)c12 [Compound 245] | – | > 3000
6 | CCc1cccc2cc(O)cc(-c3ncc4c(N5CC6CCC(C5)N6)nc(N5CCC(CN6CCC(CC7CN(c8cc([C@@H](C(=O)N9C[C@H](O)C[C@H]9C(=O)N[C@@H](C)c9ccc(-c%10scnc%10C)cc9)C(C)C)on8)C7)CC6)CC5)nc4c3F)c12 [Compound 193, (2S,4R)-1-[(2S)-2-(3-{3-[(1-{[1-(4-{3,8-diazabicyclo[3.2.1]octan-3-yl}-7-(8-ethyl-3-hydroxynaphthalen-1-yl)-8-fluoropyrido[4,3-d]pyrimidin-2-yl)piperidin-4-yl]methyl}piperidin-4-yl)methyl]azetidin-1-yl}-1,2-oxazol-5-yl)-3-methylbutanoyl]-4-hydroxy-N-[(1S)-1-[4-(4-methyl-1,3-thiazol-5-yl)phenyl]ethyl]pyrrolidine-2-carboxamide] | – | > 3000
7 | C#Cc1c(F)ccc2cc(O)cc(-c3ncc4c(N5CC6CCC(C5)N6)nc(OCCN5CCC(CN6CCN(c7cc([C@H](C(=O)N8C[C@H](O)C[C@H]8C(=O)N[C@@H](C)c8ccc(-c9ccnn9C)cc8)C(C)C)on7)CC6)CC5)nc4c3F)c12 [Compound 190, (2S,4R)-1-[(2R)-2-(3-{4-[(1-{2-[(4-{3,8-diazabicyclo[3.2.1]octan-3-yl}-7-(8-ethynyl-7-fluoro-3-hydroxynaphthalen-1-yl)-8-fluoropyrido[4,3-d]pyrimidin-2-yl)oxy]ethyl}piperidin-4-yl)methyl]piperazin-1-yl}-1,2-oxazol-5-yl)-3-methylbutanoyl]-4-hydroxy-N-[(1S)-1-[4-(1-methyl-1H-pyrazol-5-yl)phenyl]ethyl] pyrrolidine-2-carboxamide] | 80 to 100 | < 600
8 | CCc1cccc2cc(O)cc(-c3ncc4c(N5CC6CCC(C5)N6)nc(OC[C@@H]5CC[C@H](COC(=O)N6CCN(c7cc([C@H](C(=O)N8C[C@H](O)C[C@H]8C(=O)N[C@@H](C)c8ccc(-c9scnc9C)cc8)C(C)C)on7)CC6)N5C)nc4c3F)c12 [Compound 259, [(2R,5S)-5-{[(4-{3,8-diazabicyclo[3.2.1]octan-3-yl}-7-(8-ethyl-3-hydroxynaphthalen-1-yl)-8-fluoropyrido[4,3-d]pyrimidin-2-yl)oxy]methyl}-1-methylpyrrolidin-2-yl]methyl 4-{5-[(2R)-1-[(2S,4R)-4-hydroxy-2-{[(1S)-1-[4-(4-methyl-1,3-thiazol-5-yl)phenyl]ethyl]carbamoyl}pyrrolidin-1-yl]-3-methyl-1-oxobutan-2-yl]-1,2-oxazol-3-yl}piperazine-1-carboxylate] | 80 to 100 | < 600
9 | CCc1cccc2cc(O)cc(-c3ncc4c(N5CC6CCC(C5)N6)nc(OCCN5CCC(COc6cc([C@H](C(=O)N7C[C@H](O)C[C@H]7C(=O)N[C@@H](C)c7ccc(-c8ccnn8C)cc7)C(C)C)on6)CC5)nc4c3F)c12 (relative stereo) [Compound 143, (2S,4R)-1-[(2R*)-2-{3-[(1-{2-[(4-{3,8-diazabicyclo[3.2.1]octan-3-yl}-7-(8-ethyl-3-hydroxynaphthalen-1-yl)-8-fluoropyrido[4,3-d]pyrimidin-2-yl)oxy]ethyl}piperidin-4-yl)methoxy]-1,2-oxazol-5-yl}-3-methylbutanoyl]-4-hydroxy-N-[(1S)-1-[4-(1-methyl-1H-pyrazol-5-yl)phenyl]ethyl]pyrrolidine-2-carboxamide] | 80 to 100 | < 600
10 | CCc1cccc2cc(O)cc(-c3ncc4c(N5CC6CCC(C5)N6)nc(OCCN5CCC(CC6CN(c7cc([C@@H](C(=O)N8C[C@H](O)C[C@H]8C(=O)N[C@@H](C)c8ccc(-c9ccnn9C)cc8)C(C)C)on7)C6)CC5)nc4c3F)c12 (single isomer, unassigned) [Compound 265, (2S,4R)-1-[(2R*)-2-(3-{3-[(1-{2-[(4-{3,8-diazabicyclo[3.2.1]octan-3-yl}-7-(8-ethyl-3-hydroxynaphthalen-1-yl)-8-fluoropyrido[4,3-d]pyrimidin-2-yl)oxy]ethyl}piperidin-4-yl)methyl]azetidin-1-yl}-1,2-oxazol-5-yl)-3-methylbutanoyl]-4-hydroxy-N-[(1S)-1-[4-(1-methyl-1H-pyrazol-5-yl)phenyl]ethyl]pyrrolidine-2-carboxamide] | 60 to 80 | 1000 to 3000
11 | C#Cc1c(F)ccc2cc(O)cc(-c3ncc4c(N5CC6CCC(C5)N6)nc(OCCN5CCC(C(C)(C)N6CCN(c7cc([C@H](C(=O)N8C[C@H](O)C[C@H]8C(=O)N[C@@H](C)c8ccc(-c9scnc9C)cc8)C(C)C)on7)CC6)CC5)nc4c3F)c12 [Compound 175, (2S,4R)-1-[(2R)-2-(3-{4-[2-(1-{2-[(4-{3,8-diazabicyclo[3.2.1]octan-3-yl}-7-(8-ethynyl-7-fluoro-3-hydroxynaphthalen-1-yl)-8-fluoropyrido[4,3-d]pyrimidin-2-yl)oxy]ethyl}piperidin-4-yl)propan-2-yl]piperazin-1-yl}-1,2-oxazol-5-yl)-3-methylbutanoyl]-4-hydroxy-N-[(1S)-1-[4-(4-methyl-1,3-thiazol-5-yl)phenyl]ethyl] pyrrolidine-2-carboxamide] | 80 to 100 | < 600
12 | C#Cc1c(F)ccc2cc(O)cc(-c3ncc4c(N5CC6CCC(C5)N6)nc(OC[C@@]56CCCN5[C@H](COC(=O)N5CCN(c7cc([C@H](C(=O)N8C[C@H](O)C[C@H]8C(=O)N[C@@H](C)c8ccc(-c9scnc9C)cc8)C(C)C)on7)CC5)CC6)nc4c3F)c12 [Compound 58, [(3S,7aS)-7a-{[(4-{3,8-diazabicyclo[3.2.1]octan-3-yl}-7-(8-ethynyl-7-fluoro-3-hydroxynaphthalen-1-yl)-8-fluoropyrido[4,3-d]pyrimidin-2-yl)oxy]methyl}-hexahydro-1H-pyrrolizin-3-yl]methyl 4-{5-[(2R)-1-[(2S,4R)-4-hydroxy-2-{[(1S)-1-[4-(4-methyl-1,3-thiazol-5-yl)phenyl]ethyl]carbamoyl}pyrrolidin-1-yl]-3-methyl-1-oxobutan-2-yl]-1,2-oxazol-3-yl}piperazine-1-carboxylate] | 80 to 100 | < 600
13 | CCc1cccc2cc(O)cc(-c3ncc4c(N5C[C@H]6CC[C@@H](C5)N6)nc(OCCN5CCC(C)(CN6CCN(c7cc([C@H](C(=O)N8C[C@H](O)C[C@H]8C(=O)N[C@@H](C)c8ccc(-c9scnc9C)cc8)C(C)C)on7)CC6)CC5)nc4c3F)c12 [Compound 187, (2S,4R)-1-((R)-2-(3-(4-((1-(2-((4-((1R,5S)-3,8-diazabicyclo[3.2.1]octan-3-yl)-7-(8-ethyl-3-hydroxynaphthalen-1-yl)-8-fluoropyrido[4,3-d]pyrimidin-2-yl)oxy)ethyl)-4-methylpiperidin-4-yl)methyl)piperazin-1-yl)isoxazol-5-yl)-3-methylbutanoyl)-4-hydroxy-N—((S)-1-(4-(4-methylthiazol-5-yl)phenyl)ethyl)pyrrolidine-2-carboxamide] | 80 to 100 | < 600
